These results are taken from patent US9598365B2, “Method for synthesizing cycloalkanyl[b]indoles, cycloalkanyl[b]benzofurans, cycloalkanyl[b]benzothiophenes, compounds and methods of use” (Trustees of Dartmouth College, priority 2012, dated 2017).

The target of one experiment is T1, hHK2 (Homo sapiens, UniProt P52789).
T1 sequence (P52789 1-917): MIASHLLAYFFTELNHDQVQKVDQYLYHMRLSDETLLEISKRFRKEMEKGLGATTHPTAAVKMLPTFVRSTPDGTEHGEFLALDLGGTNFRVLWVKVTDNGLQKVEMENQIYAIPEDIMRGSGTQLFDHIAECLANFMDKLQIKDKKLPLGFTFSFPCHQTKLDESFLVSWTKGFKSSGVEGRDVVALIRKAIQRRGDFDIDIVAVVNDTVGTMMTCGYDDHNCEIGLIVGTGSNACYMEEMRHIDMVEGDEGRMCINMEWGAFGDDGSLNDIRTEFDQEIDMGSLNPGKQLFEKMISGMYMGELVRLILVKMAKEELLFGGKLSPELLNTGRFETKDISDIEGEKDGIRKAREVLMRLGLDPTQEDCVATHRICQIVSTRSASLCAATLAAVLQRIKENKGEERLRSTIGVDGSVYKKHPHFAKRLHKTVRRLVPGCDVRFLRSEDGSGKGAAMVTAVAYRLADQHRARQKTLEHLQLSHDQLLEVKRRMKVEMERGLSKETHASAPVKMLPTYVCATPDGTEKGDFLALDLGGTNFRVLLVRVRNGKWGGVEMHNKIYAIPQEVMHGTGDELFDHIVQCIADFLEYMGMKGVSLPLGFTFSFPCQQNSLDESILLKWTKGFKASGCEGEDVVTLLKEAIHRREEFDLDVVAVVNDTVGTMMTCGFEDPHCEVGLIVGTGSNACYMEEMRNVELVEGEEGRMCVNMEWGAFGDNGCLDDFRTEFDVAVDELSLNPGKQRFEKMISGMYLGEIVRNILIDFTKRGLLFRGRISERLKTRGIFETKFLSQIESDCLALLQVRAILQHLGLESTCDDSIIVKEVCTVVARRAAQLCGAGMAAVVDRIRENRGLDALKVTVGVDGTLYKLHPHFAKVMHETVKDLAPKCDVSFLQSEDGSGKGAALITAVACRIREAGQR
In words: Hexokinase 2 inhibitor, hHK2 ADP-FP. The experiment is classed as biochemical. The text has this: (§1) Selected compounds of this invention were screened for K-Ras Wnt synthetic lethal, anti-angiogenic activity, Wnt pathway modulatory activity, insulin and GLP-1 secretion modulatory activity, GPR119 receptor agonist activity, mGlu2R antagonist activity, CGRP receptor antagonist activity, Apelin receptor agonist activity and hexokinase 2 inhibitory activity using the PD^2 and TD^2 Screening Panel (Eli Lilly & Company). See Lee, et al. (2011) J. Biomol. Screen. 16:588-602.

The target in the next experiment is hCGRP1 (Homo sapiens, UniProt O60894+Q16602). The experiment can be described thus: CGRP receptor antagonist, hCGRP1 antagonism. The experiment is classed as cell-based.
hCGRP1, sequence (Q16602 23-461): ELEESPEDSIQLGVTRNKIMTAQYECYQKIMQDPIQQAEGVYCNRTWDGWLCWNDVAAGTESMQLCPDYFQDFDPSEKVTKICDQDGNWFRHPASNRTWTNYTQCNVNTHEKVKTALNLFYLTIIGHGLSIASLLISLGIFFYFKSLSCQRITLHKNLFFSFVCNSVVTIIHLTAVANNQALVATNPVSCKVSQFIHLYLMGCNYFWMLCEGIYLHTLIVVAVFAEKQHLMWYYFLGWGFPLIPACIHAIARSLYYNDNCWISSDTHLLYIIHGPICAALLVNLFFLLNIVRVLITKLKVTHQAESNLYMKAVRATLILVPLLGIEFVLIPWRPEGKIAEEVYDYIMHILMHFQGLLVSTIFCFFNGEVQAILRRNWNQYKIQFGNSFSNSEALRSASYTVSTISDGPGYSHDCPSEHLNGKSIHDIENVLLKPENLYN
hCGRP1, sequence (O60894 27-148 partner): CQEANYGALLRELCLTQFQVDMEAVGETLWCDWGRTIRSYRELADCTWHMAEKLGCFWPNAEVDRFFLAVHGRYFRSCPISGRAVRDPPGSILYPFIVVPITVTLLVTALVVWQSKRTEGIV
Text: as §1

In general, inhibition refers to the relative decrease from the control value, in per cent. Low values mean a response near the control, high ones a response far below the control.

With `CC1(C)c2c([nH]c3ccc(Cl)cc23)C2C=CC1C2` (centres unmarked) [Compound 11s], on hHK2, testing at 20 µM gave an inhibition of 5.5%. On hCGRP1, this compound had an inhibition at 30 µM of 77.1%.
